Tests used:
[1] = test system: PMA-differentiated THP-1 cells; assay: hTHP-1 assay containing 10% fetal bovine serum (IL-1β production, Tables B5 and B6); assay type: cell-based, human
Protocol: The following protocol is suitable for testing the activity of the compounds disclosed herein. Procedure 1: IL-1β Production in PMA-Differentiated THP-1 Cells Stimulated with Gramicidin.
THP-1 cells were purchased from the American Type Culture Collection and sub-cultured according to instructions from the supplier. Cells were cultured in complete RPMI 1640 (containing 10% heat inactivated FBS, penicillin (100 units/ml) and streptomycin (100 μg/ml)), and maintained in log phase prior to experimental setup. Prior to the experiment, compounds were dissolved in dimethyl sulfoxide (DMSO) to generate a 30 mM stock. The compound stock was first pre-diluted in DMSO to 3, 0.34, 0.042 and 0.0083 mM intermediate concentrations and subsequently spotted using Echo550 liquid handler into an empty 384-well assay plate to achieve desired final concentration (e.g. 100, 33, 11, 3.7, 1.2, 0.41, 0.14, 0.046, 0.015, 0.0051, 0.0017 μM). DMSO was backfilled in the plate to achieve a final DMSO assay concentration of 0.37%. The plate was then sealed and stored at room temperature until required.
THP-1 cells were treated with PMA (Phorbol 12-myristate 13-acetate) (20 ng/ml) for 16-18 hours. On the day of the experiment the media was removed and adherent cells were detached with trypsin for 5 minutes. […] The cells were plated in the 384-well assay plate containing the spotted compounds at a density of 50,000 cells/well (final assay volume 50 μl). Cells were incubated with compounds for 1 hour and then stimulated with gramicidin (5 μM) (Enzo) for 2 hours. Plates were then centrifuged at 340 g for 5 min. Cell free supernatant (40 μL) was collected using a 96—CHannel PlateMaster (Gilson) and the production of IL-1β was evaluated by HTRF (cisbio). The plates were incubated for 18 h at 4° C. and read using the preset HTRF program (donor emission at 620 nm, acceptor emission at 668 nm) of the SpectraMax i3x spectrophotometer (Molecular Devices, software SoftMax 6). A vehicle only control and a dose titration of CRID3 (100-0.0017 μM) were run concurrently with each experiment.
Procedure 2: IL-1β Production in PMA-Differentiated THP-1 Cells Stimulated with Gramicidin.
THP-1 cells were purchased from the American Type Culture Collection and sub-cultured according to instructions from the supplier. Prior to experiments, cells were cultured in complete RPMI 1640 (containing 10% heat inactivated FBS, penicillin (100 units/ml) and streptomycin (100 μg/ml)), and maintained in log phase prior to experimental setup. Prior to the experiment THP-1 were treated with PMA (Phorbol 12-myristate 13-acetate) (20 ng/ml) for 16-18 hours. Compounds were dissolved in dimethyl sulfoxide (DMSO) to generate a 30mM stock. On the day of the experiment the media was removed and adherent cells were detached with trypsin for 5 minutes. […] The cells were plated in a 384-well plate at a density of 50,000 cells/well (final assay volume […]). Compounds were first dissolved in assay medium to obtain a 5× top concentration of 500 μM. 10 step dilutions (1:3) were then undertaken in assay medium containing 1.67% DMSO. 5× compound solutions were added to the culture medium to achieve desired final concentration (e.g. 100, 33, 11, 3.7, 1.2, 0.41, 0.14, 0.046, 0.015, 0.0051, 0.0017 μM). Final DMSO concentration was at 0.37%. Cells were incubated with compounds for 1 hour and then stimulated with gramicidin (5 μM) (Enzo) for 2 hours. Plates were then centrifuged at 340 g for 5 min. Cell free supernatant (40 μL) was collected using a 96—CHannel PlateMaster (Gilson) and the production of IL-1β was evaluated by HTRF (cisbio). A vehicle only control and a dose titration of CRID3 (100-0.0017 μM) were run concurrently with each experiment.
Tables B1, B2, B3, and B4 show the biological activity of compounds in hTHP-1 assay containing 2% fetal bovine serum. […] Key: <0.008 μM=“++++++”; ≥0.008 and <0.04 μM=“+++++”; >0.04 and <0.2 μM=“++++”; ≥0.2 and <1 μM=“+++”; ≥1 and <5 μM=“++”; ≥5 and <30 μM=“+”. […]

[2] = test system: PMA-differentiated THP-1 cells; assay: IL-1β production in PMA-differentiated THP-1 cells stimulated with gramicidin (hTHP-1 assay containing 2% fetal bovine serum; Procedures 1 and 2); assay type: cell-based, human; settings: Homo sapiens, 2% fetal bovine serum
Outline: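 PMA-primed (20 ng/ml, 16-18 h) THP-1 cells in RPMI with 2% FBS, 50,000 cells/well, were preincubated 1 h with compound (0.0017-100 μM final, 0.37% DMSO), then stimulated 2 h with 5 μM gramicidin. Supernatant IL-1β measured by HTRF.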

[3] = read-out: hTHP-1 IC50 in 10% FBS, hTHP-1 assay containing 10% fetal bovine serum, Table B6
[4] = Homo sapiens, THP-1, read-out: hTHP-1 IC50 in 10% FBS, hTHP-1 assay containing 10% fetal bovine serum, Table B5

Cc1c(C(F)(F)F)nc2c(c1NC(=O)N=S(N)(=O)c1scc(C(C)(C)O)c1F)CCC2 (single isomer, unassigned) [Compound 1108b, (S) or (R)-3-fluoro-4-(2-hydroxypropan-2-yl)-N′-((3-methyl-2-(trifluoromethyl)-6,7-dihydro-5H-cyclopenta[b]pyridin-4-yl)carbamoyl)thiophene-2-sulfonimidamide]
IC50 ([1]; read-out: hTHP-1 IC50 in 10% FBS, hTHP-1 assay containing 10% fetal bovine serum, Table B5, listed as 841): 1000 to 5000 nM

NS(=O)(=NC(=O)Nc1c2c(nc3c1CCC31CC1)CCC2)c1ccn(C2CC2)n1 (stereo not drawn) [Example 861, 1-Cyclopropyl-N′-((1′,5′,6′,7′-tetrahydro-2′H-spiro[cyclopropane-1,3′-dicyclopenta[b,e]pyridin]-8′-yl)carbamoyl)-1H-pyrazole-3-sulfonimidamide]
IC50 ([1]; Homo sapiens, THP-1, read-out: hTHP-1 IC50 in 10% FBS, hTHP-1 assay containing 10% fetal bovine serum, Table B6): 40 to 200 nM

Cc1c(C(F)(F)F)nc2c(c1NC(=O)N=S(N)(=O)c1cnc(C(F)F)s1)CCC2 (single isomer, unassigned) [Compound 1007a, (R) or (S)-2-(Difluoromethyl)-N′-((3-methyl-2-(trifluoromethyl)-6,7-dihydro-5H-cyclopenta[b]pyridin-4-yl)carbamoyl)thiazole-5-sulfonimidamide]
IC50 ([1]; read-out: hTHP-1 IC50 in 10% FBS, hTHP-1 assay containing 10% fetal bovine serum, Table B5, listed as 829): 1000 to 5000 nM

CC(C)n1cc(F)c(S(N)(=O)=NC(=O)Nc2c3c(nc(C(F)(F)F)c2C2CC2)CCC3)n1 (single isomer, unassigned) [Compound 1104b, (S) or (R)-N′-((3-cyclopropyl-2-(trifluoromethyl)-6,7-dihydro-5H-cyclopenta[b]pyridin-4-yl)carbamoyl)-4-fluoro-1-isopropyl-1H-pyrazole-3-sulfonimidamide]
IC50 ([1]; read-out: hTHP-1 IC50 in 10% FBS, hTHP-1 assay containing 10% fetal bovine serum, Table B5, listed as 827): 1000 to 5000 nM

NS(=O)(=NC(=O)Nc1c2c(nc3c1CCC3)CCC2)c1nn(C2CC2)cc1F (single isomer, unassigned) [Example 864, (S) or (R)-1-cyclopropyl-4-fluoro-N′-((1,2,3,5,6,7-hexahydrodicyclopenta[b,e]pyridin-8-yl)carbamoyl)-1H-pyrazole-3-sulfonimidamide]
IC50 [1, 3]: 200 to 1000 nM

Cc1c(C(F)(F)F)nc2c(c1NC(=O)N=S(N)(=O)c1cnc(C(F)F)s1)CCC2 (single isomer, unassigned) [Compound 1007b, (S) or (R)-2-(Difluoromethyl)-N′-((3-methyl-2-(trifluoromethyl)-6,7-dihydro-5H-cyclopenta[b]pyridin-4-yl)carbamoyl)thiazole-5-sulfonimidamide]
IC50 ([1]; read-out: hTHP-1 IC50 in 10% FBS, hTHP-1 assay containing 10% fetal bovine serum, Table B5, listed as 828): 5000 to 30000 nM

CC(C)(O)c1csc(S(N)(=O)=NC(=O)Nc2c3c(nc4c2CCC4)CCC3)c1F (stereo not drawn) [Compound 1107, 3-Fluoro-N′-((1,2,3,5,6,7-hexahydrodicyclopenta [b,e]pyridin-8-yl)carbamoyl)-4-(2-hydroxypropan-2-yl)thiophene-2-sulfonimidamide]
IC50 [1, 4]: 40 to 200 nM

CCn1cc(F)c(S(N)(=O)=NC(=O)Nc2c3c(nc(C)c2C(F)(F)F)CCC3)n1 (single isomer, unassigned) [Compound 1116a, (R) or (S)-1-ethyl-4-fluoro-N′-((2-methyl-3-(trifluoromethyl)-6,7-dihydro-5H-cyclopenta[b]pyridin-4-yl)carbamoyl)-1H-pyrazole-3-sulfonimidamide]
IC50 ([1]; read-out: hTHP-1 IC50 in 10% FBS, hTHP-1 assay containing 10% fetal bovine serum, Table B5, listed as 848): 8 to 40 nM

CC(C)(O)c1csc(S(N)(=O)=NC(=O)Nc2c3c(nc(C4CC4)c2C2CC2)CCC3)c1F (single isomer, unassigned) [Compound 1106a, (R) or (S)-N′-((2,3-dicyclopropyl-6,7-dihydro-5H-cyclopenta[b]pyridin-4-yl)carbamoyl)-3-fluoro-4-(2-hydroxypropan-2-yl)thiophene-2-sulfonimidamide]
IC50 ([1]; read-out: hTHP-1 IC50 in 10% FBS, hTHP-1 assay containing 10% fetal bovine serum, Table B5, listed as 830): 40 to 200 nM

CC(C)(O)c1csc(S(N)(=O)=NC(=O)Nc2c3c(nc4c2CCC4)CCC3)c1F (single isomer, unassigned) [Compound 1107b, (S) or (R)-3-fluoro-N′-((1,2,3,5,6,7-hexahydrodicyclopenta[b,e]pyridin-8-yl)carbamoyl)-4-(2-hydroxypropan-2-yl)thiophene-2-sulfonimidamide]
IC50 ([1]; read-out: hTHP-1 IC50 in 10% FBS, hTHP-1 assay containing 10% fetal bovine serum, Table B5, listed as 839): 1000 to 5000 nM

CCn1cc(F)c(S(N)(=O)=NC(=O)Nc2c(C)c(C(F)(F)F)nc3c2CC(C)C3)n1 (single isomer, unassigned) [Compound 1101d, (R, R) or (R, S)-N′-((3,6-dimethyl-2-(trifluoromethyl)-6,7-dihydro-5H-cyclopenta[b]pyridin-4-yl)carbamoyl)-1-ethyl-4-fluoro-1H-pyrazole-3-sulfonimidamide]
IC50 ([1]; read-out: hTHP-1 IC50 in 10% FBS, hTHP-1 assay containing 10% fetal bovine serum, Table B5, listed as 824): 200 to 1000 nM

NS(=O)(=NC(=O)Nc1c2c(nc3c1CCC3)CCC2)c1nn(C2CC2)cc1F (single isomer, unassigned) [Example 863, (R) or (S)-1-cyclopropyl-4-fluoro-N′-((1,2,3,5,6,7-hexahydrodicyclopenta[b,e]pyridin-8-yl)carbamoyl)-1H-pyrazole-3-sulfonimidamide]
IC50 [1, 3]: 40 to 200 nM

Cc1c(C(F)(F)F)nc2c(c1NC(=O)N=S(N)(=O)c1cnc(C(F)(F)F)s1)CCC2 (stereo not drawn) [Compound 1118, N′-((3-methyl-2-(trifluoromethyl)-6,7-dihydro-5H-cyclopenta [b]pyridin-4-yl)carbamoyl)-2-(trifluoromethyl) thiazole-5-sulfonimidamide]
IC50 [1, 4]: 5000 to 30000 nM

CC1(C)CCc2c1nc1c(c2NC(=O)N=S(N)(=O)c2sc(C(C)(O)CO)cc2F)CCC1 (single isomer, unassigned) [Compound 699a, (S, S) and (R, S) or (S, R) and (R, R)-5-(1,2-Dihydroxypropan-2-yl)-N′-((3,3-dimethyl-1,2,3,5,6,7-hexahydrodicyclopenta [b,e]pyridin-8-yl)carbamoyl)-3-fluorotliophene-2-sulfonimidamide]
IC50 ([2]; THP-1, Table B2, numeric bounds, read-out: hTHP-1 IC50): > 30000 nM

CCc1c(C(F)(F)F)nc2c(c1NC(=O)N=S(N)(=O)c1nn(C(F)F)cc1F)CCC2 (stereo not drawn) [Example 572, 1-(Difluoromethyl)-N′-((3-ethyl-2-(trifluoromethyl)-6,7-dihydro-5H-cyclopenta[b]pyridin-4-yl)calbamoyl)-4-fluoro-1H-pyrazole-3-sulfonimidamide]
IC50 ([2]; THP-1, Table B3, hTHP-1 assay, class symbols, read-out: IC50): 1000 to 5000 nM
